Patent US8513229B2, “4-Azetidinyl-1-phenyl-cyclohexane antagonists of CCR2” (Janssen Pharmaceutica NV, priority 2009, dated 2013)

Biological target: T1, CCR2 (Homo sapiens, UniProt P41597)
T1 construct: host or cells: THP-1 human monocytic cells
T1 sequence (P41597 1-360 isoform P41597-2): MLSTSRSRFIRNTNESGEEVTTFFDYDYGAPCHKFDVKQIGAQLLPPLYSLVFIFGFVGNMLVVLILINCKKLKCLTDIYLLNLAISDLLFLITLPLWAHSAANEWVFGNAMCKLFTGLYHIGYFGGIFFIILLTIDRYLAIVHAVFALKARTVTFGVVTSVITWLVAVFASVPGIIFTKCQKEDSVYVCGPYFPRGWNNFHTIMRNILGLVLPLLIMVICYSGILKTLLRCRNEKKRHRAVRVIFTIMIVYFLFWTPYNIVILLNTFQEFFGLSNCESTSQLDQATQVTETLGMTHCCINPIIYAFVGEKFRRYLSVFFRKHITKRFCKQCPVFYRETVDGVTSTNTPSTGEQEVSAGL
Assay: MCP-1 Receptor Binding Assay in THP-1 Cells
Conditions: 0.5 nM 125I labeled MCP-1, 2 hours at 30° C., read-out: Inhibition of MCP-1 Binding IC50 CCR2 Binding
Description: MCP-1 Receptor Binding Assay in THP-1 Cells
Human monocytic cell line THP-1 cells were obtained from American Type Culture Collection (Manassas, Va., USA). […] The cell density was maintained […].
1 μM cold MCP-1 was used for nonspecific binding.

| Molecule | IC50 |
| --- | --- |
| O=C(CNC(=O)c1cccc(C(F)(F)F)c1)NC1CN(C2CCC(c3ccccc3)CC2)C1 (single isomer, unassigned) [Example 4a, N-{[1-(4-Phenyl-cyclohexyl)-azetidin-3-ylcarbamoyl]-methyl}-3-trifluoromethyl-benzamide] | 33 nM |
| Cc1ccc(C2(O)CCC(N3CC(NC(=O)CNC(=O)c4cccc(C(F)(F)F)c4)C3)CC2)cc1 (centres unmarked) [Example 59, N-{[1-(4-Hydroxy-4-p-tolyl-cyclohexyl)-azetidin-3-ylcarbamoyl]-methyl}-3-trifluoromethyl-benzamide] | 100 nM |
| CN(C)c1ccc(C(F)(F)F)cc1C(=O)NCC(=O)NC1CN(C2CCC(c3ccccc3)CC2)C1 (centres unmarked) [Example 69, 2-Dimethylamino-N-{[1-(4-phenyl-cyclohexyl)-azetidin-3-ylcarbamoyl]-methyl}-5-trifluoromethyl-benzamide] | 240 nM |
| O=C(CNC(=O)c1cccc(C(F)(F)F)c1)NC1CN(C2CCC(O)(c3ccc(C(=O)O)cc3)CC2)C1 (centres unmarked) [Example 45, 4-(1-Hydroxy-4-{3-[2-(3-trifluoromethyl-benzoylamino)-acetylamino]-azetidin-1-yl}-cyclohexyl)-benzoic acid] | 6900 nM |
| O=C(CNC(=O)c1cccc(C(F)(F)F)c1)NC1CN(C2CCC(c3cccc(C(=O)O)c3)CC2)C1 (centres unmarked) [Example 12, 3-(4-{3-[2-(3-Trifluoromethyl-benzoylamino)-acetylamino]-azetidin-1-yl}-cyclohexyl)-benzoic acid] | 220 nM |
| O=C(O)Cc1ccc(C2CCC(N3CC(NC(=O)CNC(=O)c4cccc(C(F)(F)F)c4)C3)CC2)cc1 (centres unmarked) [Example 25, [4-(4-{3-[2-(3-Trifluoromethyl-benzoylamino)-acetylamino]-azetidin-1-yl}-cyclohexyl)-phenyl]-acetic acid] | 320 nM |
| O=C(CNC(=O)c1cccc(C(F)(F)F)c1)NC1CN(C2CCC(O)(c3ccc(O)cc3)CC2)C1 (centres unmarked) [Example 42, N-({1-[4-Hydroxy-4-(4-hydroxy-phenyl)-cyclohexyl]-azetidin-3-ylcarbamoyl}-methyl)-3-trifluoromethyl-benzamide] | 130 nM |
| COc1ccc(C2(N)CCC(N3CC(NC(=O)CNC(=O)c4cccc(C(F)(F)F)c4)C3)CC2)cc1 (centres unmarked) [Example 86, N-({1-[4-Amino-4-(4-methoxy-phenyl)-cyclohexyl]-azetidin-3-ylcarbamoyl}-methyl)-3-trifluoromethyl-benzamide] | 320 nM |
| N-({1-[4-(4,4-bis-Methanesulfonylamino-phenyl)-cyclohexyl]-azetidin-3-ylcarbamoyl}-methyl)-3-trifluoromethyl-benzamide [Example 17] | 27 nM |
| Nc1ccc(C2CCC(N3CC(NC(=O)CNC(=O)c4cccc(C(F)(F)F)c4)C3)CC2)cc1 (centres unmarked) [Example 15, N-({1-[4-(4-Amino-phenyl)-cyclohexyl]-azetidin-3-ylcarbamoyl}-methyl)-3-trifluoromethyl-benzamide] | 337 nM |
| Cn1c(=O)n(C)c2cc(C3(O)CCC(N4CC(NC(=O)CNC(=O)c5cccc(C(F)(F)F)c5)C4)CC3)ccc21 (centres unmarked) [Example 62, N-({1-[4-(1,3-Dimethyl-2-oxo-2,3-dihydro-1H-benzoimidazol-5-yl)-4-hydroxy-cyclohexyl]-azetidin-3-ylcarbamoyl}-methyl)-3-trifluoromethyl-benzamide] | 82 nM |
| O=C(O)COc1ccc(C2CCC(N3CC(NC(=O)CNC(=O)c4cccc(C(F)(F)F)c4)C3)CC2)cc1 (centres unmarked) [Example 44] | 124 nM |
| O=C(CNC(=O)c1cc(C(F)(F)F)ccc1F)NC1CN(C2CCC(c3ccccc3)CC2)C1 (centres unmarked) [Example 66, 2-Fluoro-N-{[1-(4-phenyl-cyclohexyl)-azetidin-3-ylcarbamoyl]-methyl}-5-trifluoromethyl-benzamide] | 620 nM |
| NC(=O)Cc1ccc(C2CCC(N3CC(NC(=O)CNC(=O)c4cccc(C(F)(F)F)c4)C3)CC2)cc1 (centres unmarked) [Example 26, N-({1-[4-(4-Carbamoylmethyl-phenyl)-cyclohexyl]-azetidin-3-ylcarbamoyl}-methyl)-3-trifluoromethyl-benzamide] | 70 nM |
| COC(=O)COc1ccc(C2CCC(N3CC(NC(=O)CNC(=O)c4cccc(C(F)(F)F)c4)C3)CC2)cc1 (centres unmarked) [Example 43] | 38 nM |

Continued, values first:

| IC50 | Molecule |
| --- | --- |
| 21 nM | COc1ccc(C2(O)CCC(N3CC(NC(=O)CNC(=O)c4cccc(C(F)(F)F)c4)C3)CC2)cc1 (single isomer, unassigned) [Example 36a, N-({1-[4-Hydroxy-4-(4-methoxy-phenyl)-cyclohexyl]-azetidin-3-ylcarbamoyl}-methyl)-3-trifluoromethyl-benzamide] |
| 206 nM | O=C(CNC(=O)c1cccc(C(F)(F)F)c1)NC1CN(C2CCC(O)(c3ccc(F)cc3)CC2)C1 (single isomer, unassigned) [Example 47a, N-({1-[4-(4-Fluoro-phenyl)-4-hydroxy-cyclohexyl]-azetidin-3-ylcarbamoyl}-methyl)-3-trifluoromethyl-benzamide] |
| 9 nM | O=C(CNC(=O)c1cccc(C(F)(F)F)c1)NC1CN(C2CCC(c3ccc4oc(=O)[nH]c4c3)CC2)C1 (single isomer, unassigned) [Example 5a, N-({1-[4-(2-oxo-2,3-dihydro-benzooxazol-5-yl)-cyclohexyl]-azetidin-3-ylcarbamoyl}-methyl)-3-trifluoromethyl-benzamide] |
| 46 nM | O=C(CNC(=O)c1cccc(C(F)(F)F)c1)NC1CN(C2CCC(O)(c3ccc4c(c3)OCO4)CC2)C1 (single isomer, unassigned) [Example 31a, N-{[1-(4-Benzo[1,3]dioxol-5-yl-4-hydroxy-cyclohexyl)-azetidin-3-ylcarbamoyl]-methyl}-3-trifluoromethyl-benzamide] |
| 150 nM | Cn1c(=O)oc2ccc(C3(O)CCC(N4CC(NC(=O)CNC(=O)c5cccc(C(F)(F)F)c5)C4)CC3)cc21 (centres unmarked) [Example 63a, N-({1-[4-Hydroxy-4-(3-methyl-2-oxo-2,3-dihydro-benzooxazol-5-yl)-cyclohexyl]-azetidin-3-ylcarbamoyl}-methyl)-3-trifluoromethyl-benzamide] |
| 5300 nM | NC(=O)c1ccc(C2(O)CCC(N3CC(NC(=O)CNC(=O)c4cccc(C(F)(F)F)c4)C3)CC2)cc1 (single isomer, unassigned) [Example 55a, N-({1-[4-(4-benzamide)-4-hydroxy-cyclohexyl]-azetidin-3-ylcarbamoyl}-methyl)-3-trifluoromethyl-benzamide] |
| 85 nM | N#Cc1cccc(C2CCC(N3CC(NC(=O)CNC(=O)c4cccc(C(F)(F)F)c4)C3)CC2)c1 (single isomer, unassigned) [Example 8a, N-({1-[4-(3-Cyano-phenyl)-cyclohexyl]-azetidin-3-ylcarbamoyl}-methyl)-3-trifluoromethyl-benzamide] |
| 340 nM | CCOC(=O)Cc1ccc(C2CCC(N3CC(NC(=O)CNC(=O)c4cccc(C(F)(F)F)c4)C3)CC2)cc1 (single isomer, unassigned) [Example 24a, [4-(4-{3-[2-(3-Trifluoromethyl-benzoylamino)-acetylamino]-azetidin-1-yl}-cyclohexyl)-phenyl]-acetic acid ethyl ester] |
| 30 nM | N#CCc1ccc(C2CCC(N3CC(NC(=O)CNC(=O)c4cccc(C(F)(F)F)c4)C3)CC2)cc1 (single isomer, unassigned) [Example 21a, N-({1-[4-(4-Cyanomethyl-phenyl)-cyclohexyl]-azetidin-3-ylcarbamoyl}-methyl)-3-trifluoromethyl-benzamide] |
| 190 nM | CSc1cccc(C2(O)CCC(N3CC(NC(=O)CNC(=O)c4cccc(C(F)(F)F)c4)C3)CC2)c1 (single isomer, unassigned) [Example 38a, N-({1-[4-Hydroxy-4-(3-methylsulfanyl-phenyl)-cyclohexyl]-azetidin-3-ylcarbamoyl}-methyl)-3-trifluoromethyl-benzamide] |
| 110 nM | O=C(CNC(=O)c1cccc(C(F)(F)F)c1)NC1CN(C2CCC(O)(c3cccc(O)c3)CC2)C1 (single isomer, unassigned) [Example 46a, N-({1-[4-Hydroxy-4-(3-hydroxy-phenyl)-cyclohexyl]-azetidin-3-ylcarbamoyl}-methyl)-3-trifluoromethyl-benzamide] |
